US9776992B2, “1-oxo-1,2-dihydroisoquinolin-7-yl-(5-substituted-thiophen-2-yl)-sulfonamide compounds, formulations containing those compounds, and their use as AICARFT inhibitors in the treatment of cancers” (Eli Lilly and Company, priority 2014, dated 2017)

Columns and labels:
AICARFT [1] = biological target: T1, AICARFT (Homo sapiens, UniProt P31939); test: AICARFT enzyme assay (LC-MS of IMP and ZMP); type: biochemical; parameters: made in house; host or cells: E. coli BL21(DE3); settings: summary of Table 15
T1 sequence (P31939 whole entry): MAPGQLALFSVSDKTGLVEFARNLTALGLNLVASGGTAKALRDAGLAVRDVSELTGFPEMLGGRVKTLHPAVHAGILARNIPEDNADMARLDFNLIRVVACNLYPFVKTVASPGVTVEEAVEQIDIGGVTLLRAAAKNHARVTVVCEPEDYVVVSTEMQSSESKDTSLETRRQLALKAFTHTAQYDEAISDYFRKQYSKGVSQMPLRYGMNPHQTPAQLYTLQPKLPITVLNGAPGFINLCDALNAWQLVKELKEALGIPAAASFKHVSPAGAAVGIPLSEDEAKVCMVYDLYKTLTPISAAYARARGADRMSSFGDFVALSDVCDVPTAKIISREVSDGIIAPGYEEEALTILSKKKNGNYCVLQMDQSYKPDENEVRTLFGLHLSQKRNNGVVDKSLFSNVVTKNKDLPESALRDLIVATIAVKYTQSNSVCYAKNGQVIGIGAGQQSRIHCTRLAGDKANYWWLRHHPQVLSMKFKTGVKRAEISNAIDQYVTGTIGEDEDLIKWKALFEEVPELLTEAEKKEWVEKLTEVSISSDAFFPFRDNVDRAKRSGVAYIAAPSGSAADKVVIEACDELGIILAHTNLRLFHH
Description: Human AICARFT (NCBI accession number: NM_004044.6) cDNA is purchased from Openbiosystem Co. (Cat# MHS1011-62310, Clone ID: 4300570, accession: BC008879). The nucleotide sequence encoding full-length human AICARFT is inserted into pET21d (Novagen) vector with an N-terminal HIS tag. Bacterial BL21(DE3) (Novagen) is used as an expression host, and the induction of protein expression is carried out in 2×TY media with 1 mM IPTG at 18° C. overnight. Cell pellets are stored at −80° C. for subsequent protein purification. Protein purification is conducted at 4° C. Frozen cell pellets are lysed by incubation with stirring in 50 mL cold lysis buffer (50 mM Tris-HCl, pH 7.5, 300 mM NaCl, 10% glycerol, 0.1% Triton X-100, 0.5 mg/mL lysozyme, 5 U/mL benzonase, 1 mM DTT, 10 mM imidazole, and Roche complete EDTA-free protease inhibitor) per liter cell pellet and sonication. Cell lysates are clarified by centrifugation in a Bechman JA-18 rotor for 45 min at 16,500 rpm. The supernatant is incubated with Ni-NTA agarose resin (Qiagen) for 3 hours, followed by an initial batch wash with 10 resin volume of buffer A (50 mM Tris-HCl, pH 7.5, 300 mM NaCl, 10% glycerol, 1 mM DTT, 10 mM imidazole) containing 0.1% Triton X-100. The resin is then packed onto a column and washed with buffer A. The HIS-tagged AICARFT protein is eluted with 10-500 mM imidazole gradient in buffer A. Pooled HIS-AICARFT containing fractions are concentrated, loaded onto a HiLoad 26/600 Superdex 200 column (GE Healthcare Biosciences), and eluted with storage buffer (50 mM Tris-HCl, pH7.5, 150 mM NaCl, 1 mM DTT, 10% Glycerol). Fractions containing HIS-AICARFT are pooled and protein concentration determined by the Bradford assay using BSA as standard. The protein is aliquoted and stored at −80° C.
One of the substrates of the enzyme reaction, 10-formyltetrahydrofolate (10-F-THFA), has limited chemical stability and is therefore synthesized on the same day that the ATIC enzyme assay is performed. The general synthetic route is described in P. Rowe, Methods Enzymol., 18, 733-735, (1971) and J. Rabinowitz, Methods Enzymol., 6, 814-815, (1963). The first step in this synthesis is the conversion of folinic acid (Sigma CAS 1492-18-8) to 5,10-methenyltetrahydrofolic acid (5,10-M-THFA). This conversion typically takes place the day before the enzyme assay is performed, but can be performed up to 1 week earlier and stored at room temperature. To folinic acid (81.6 mg) is added β-mercaptoethanol (2 mL), and 37% concentrated HCl (80 μL), is added. This reaction incubates a minimum of 3 hours at room temperature, with occasional mixing. The color changes from clear to yellow visually, and the complete conversion of folinic acid to 5,10-M-THFA is monitored by spectral analysis using a quartz cuvette. The UV absorption will change from 266 nm to 356 nm during this step. […] On the morning of the assay, the 80 mM 5,10-M-THFA is diluted to 1.6 mM in 40 μM ammonium bicarbonate (made fresh that day). This reaction incubates 3-5 hours at room temperature. The color changes from yellow to clear visually, and the conversion of 5,10-M-THFA to 10-F-THFA is monitored by spectral analysis using a quartz cuvette. The UV absorption will change from 356 nm to 258 nm during this step. […] Test compounds are prepared in DMSO to make a 10 mM stock solution. The stock solution is serially diluted 3-fold in DMSO to obtain a ten-point dilution curve with final compound concentrations ranging from 100 μM to 5 nM. The final DMSO concentration in the assay is 5%.
To each well of a 384-well polypropylene assay plate (NUNC 264573), […] of DMSO (control wells) or compound in DMSO and 9 μL of 55.56 μM ZMP (Sigma-Aldrich CAS 3031-94-5) in water are added. Then, 10 μL of 200 μM 10-F-THFA and 6 nM ATIC enzyme in 40 μM ammonium bicarbonate is added. […] The assay is incubated for 1 hour at room temperature, after which 40 μL of ACN is added to stop the reaction.

AICARFT [2] = biological target: T1, AICARFT; test: MS detection of ZMP in low folate media cultured NCI-H460 cells; type: cell-based; parameters: endogenous in cells; host or cells: NCI-H460; settings: low levels of folate in the media; summary of Table 16
Description: Grow NCI-H460 cells in complete high folate RPMI media (ATCC #30-2001) until cellular confluence reaches ˜80%. Wash cells with PBS, trypsinize, resuspend cells in complete low folate RPMI media (Gibco #27016-021) and perform a cell count. Transfer 1.25×10^6 cells to a T225 flask containing complete low folate RPMI media (40 mL). Grow for seven days. Split cells again with complete low folate media if confluence surpasses 80%. Wash cells with PBS, trypsinize, resuspend cells in complete low folate RPMI media, and perform a cell count. Aliquot 10×10^6 cells in complete low folate media (1 mL)+5% DMSO per cryovial. Use a cell freezing apparatus to freeze cells in a slow and controlled manner in a −80° C. freezer. The next day, transfer cells to liquid nitrogen for long term storage. Thaw frozen cells from cryovial in 37° C. water bath, wash cells once with low folate assay medium: folate free RPMI 1640 medium (Gibco, #27016-021), Glucose (Sigma, #G5767), Hepes (Hyclone, #SH30237.01), Na Pyruvate (Hyclone, #Sh30239.01), 10% FBS (Hyclone, #SH30070.03). Adjust cells concentration to 250,000 cells/mL with medium, plate cells by adding 100 μl/well (25,000 cells/well) into Biocoat poly-D-lysine 96-well plate (BD, #35-4640), and incubate at 37° C. overnight with 5% CO2. Treat cells with 20 μl/well compound diluted in media containing 3% DMSO. Incubate at 37° C. for 16 hours with 5% CO2, then remove the medium and add 1× SureFire Lysis Buffer (50 μL) (PerkinElem, SureFire® Kit component) to each well and incubate at room temperature for 10 min with gentle shaking.
Cells grown in a 96-well plate have the media removed and are lysed in AlphaScreen® SureFire® lysis buffer. Standard curves containing ZMP, dUMP and AICAr at concentrations of 5-10,000 ng/mL are prepared in 40 mM ammonium acetate, pH 4. Aliquots (40 μL) of each standard or sample are combined in a deep 96-well plate with 160 μL of internal standard solution containing ^13C5-ZMP (custom synthesis) and ^13C5-AICAr (custom synthesis) at 100 ng/mL in 40 mM ammonium acetate, pH 4. A Beckman Biomek FX liquid handler is used to add 400 μL of DCM to each sample. Samples are sealed, vortexed for 5 minutes, and placed in the refrigerator for at least 30 minutes. The samples are centrifuged for 10 minutes at 4,000 rpm and 4° C. using an Eppendorf 5810R centrifuge, and the Biomek liquid handler is used to transfer 75 μL of the aqueous layer into a clean 96-well plate. The plates are sealed prior to analysis.
The LC-MS method utilizes a Shimadzu Prominence 20A HPLC system connected to an AB Sciex 5500™ or an AB Sciex 6500™ triple quadrupole mass spectrometer running Analyst® 2.1 software. Extracted samples are separated using a Thermo Hypercarb™ Javelin guard column (2.1×20 mm, […]) with an injection volume of 15 μL and a flow rate of 1 mL/minute. Mobile phase A is a 95:5 mixture of 50 mM ammonium formate, pH 4 and ACN. Mobile phase B is a 70:30 mixture of ACN and MeOH spiked with 0.3% formic acid and 2% concentrated ammonium hydroxide solution (v/v). The gradient is as follows: 0 minutes, 0% B; 0.25 minutes, 0% B; 2.00 minutes, 30% B; 2.01 minutes, 95% B; 3.50 minutes, 95% B, 3.51 minutes, 0% B, 5.00 minutes, stop.
The mass spectrometer is operated in positive ion TurboIonSpray® multiple reaction monitoring mode with a source temperature of 700° C. The precursor and fragment ions for each analyte are: ZMP (339→110), ^13C5-ZMP (344→110), dUMP (309→81), AICAr (259→127) and ^13C5-AICAr (264→127). Calibration curves are constructed by plotting analyte concentrations vs. analyte/internal standard peak area ratios and performing a linear fit of the data using a 1/concentration weighting with AB Sciex MultiQuant™ 2.1 software. Back-calculated ZMP concentrations are fit to a four-parameter logistic equation using ACTIVITYBASE 4.0 to determine IC50 values.

AICARFT inhibition in enzyme assay (in words) (AICARFT [1]): inhibit AICARFT | AICARFT inhibition in low folate media assay (in words) (AICARFT [2]): still inhibit AICARFT
Structure (SMILES): O=c1[nH]ccc2cc(F)c(NS(=O)(=O)c3ccc(N4CC[C@H](O)C4)s3)cc12 [Example 8, N-(6-Fluoro-1-oxo-1,2-dihydroisoquinolin-7-yl)-5-[(3S)-3-hydroxypyrrolidin-1-yl]thiophene-2-sulfonamide]
